The numbers were not newly measured in patent publication US20040167355A1, “Hydrocarbon products and methods of preparing hydrocarbon products” (priority 2003, published 2004), which cites them from elsewhere.

The conditions of data set [1]: 1% solution of the sodium salt of the surfactant.
The conditions of data set [2]: 25° C.; 450 ppm surfactant, 420 ppm hardness (3:1 Ca++:Mg++).

On to `CCCCCCCC(C)CCC(C)c1ccc(S(=O)(=O)O)cc1` (stereo not shown) [5-Methyl-2-Phenyl Dodecyl Benzene Sulfonate], for which the Krafft temperature in data set [1] was 16 °C. Moreover, the “loss of surfactant in hard water” value in data set [2] is given as 5%.

In the case of `CCCCCCCCCCC(C)c1ccc(S(=O)(=O)O)cc1` (stereo not shown) [2-Phenyl Dodecyl Benzene Sulfonate], the Krafft temperature in data set [1] is 36 °C. The “loss of surfactant in hard water” value in data set [2] is on record as 100%.
